Measurements published in patent US20110086035A1, “IMMUNOTHERAPEUTIC METHODS AND MOLECULES” (priority 2008, published 2011).
Like-named read-outs stand apart in the source and are kept apart here.

Assays:
T cell clones = assay: IFNg ELISA of T cell clones stimulated with FHT peptide or FHT loaded HLA restricted LCL; type: cell-based, human; conditions: in all but one of the clones; FIG. 8
Protocol: FIG. 8. […] Using limiting dilution, individual T cell clones were generated. Following expansion, the clones were either left un-stimulated, stimulated with FHT peptide or stimulated with HLA restricted FHT loaded LCL. IFNg production was then measured in a standard ELISA.
(§1) Using limiting dilution, individual T cell clones were generated. Following expansion, the clones were either left un-stimulated, stimulated with FHT peptide or stimulated with HLA restricted FHT loaded LCL. IFNg production was then measured in a standard ELISA.

T cells specific for FHT = assay: DRB1*0401/FHT multimer staining of FHT-expanded cell lines; type: cell-based, human; conditions: PBMC of 3 donors (two DRB1*0401, one DRB1*0408) expanded 14 or 21 days; FHT bound to multimer of DRB1*0401; FIG. 7
Text: FIG. 7. Cell lines expanded using the FHT peptide contain T cells that bind specifically to the FHT peptide in the context of DRB1*0401. PBMC from 3 different donors were expanded with the FHT peptide for 14 or 21 days (IVS—In vitro stimulation). Two of the donors were DRB1*0401 positive and one was DRB1*0408 positive.
PBMC from 3 different donors were expanded with the FHT peptide for 14 or 21 days (IVS—In vitro stimulation). Two of the donors were DRB1*0401 positive and one was DRB1*0408 positive.

[1] = system: Asp f16-specific T cell lines of HLA-DRB1*04-positive donors; assay: Restimulation of Asp f16-specific T cell lines with peptide-pulsed autologous monocytes, IFN-γ ELISA; type: cell-based, human; conditions: T cell lines of 3 HLA-DRB1*04-positive donors; monocytes pulsed with 1 μg/ml peptide; 24 h; FIG. 2B
Protocol: (§2) Antigen-specific T cell lines were generated by incubation of 1×10^7 whole PBMC per well in 6-well cell culture plates with 5 μg/ml recombinant protein or 1 μg/ml peptide antigen for 7 days. Lymphocyte cultures were supplemented with 5 U/ml IL-2 (Proleukin, Chiron, Ratingen, Germany) every other day and culture medium replenished as needed.
(§3) Autologous monocytes were isolated from whole PBMC by allowing cells to adhere to tissue culture dishes for 2 hours and subsequent extensive washing to remove non-adherent cells. For presentation of protein antigen, monocytes were cultured overnight in the presence of 5 μg/ml recombinant protein and harvested by mechanical abrasion the next day. For presentation of peptide antigen, monocytes were incubated overnight without antigen and mature cells harvested and pulsed with 1 μg/ml peptide antigen for 1 hour. Transduced autologous B cells were used as antigen-presenting cells (APC) after repeated culture on gamma-irradiated human CD40L-transfected feeder cells. […]
(§4) In order to define a common MHC class II epitope of the Asp f16 protein, lymphocyte donors were screened for the expression of the most abundant MHC class II allele HLA-DRB1*04 and Asp f16-specific T cell lines generated as described. […] All T cell cultures were then exposed to both peptide and recombinant protein for 24 hours and IFN-γ production quantified.

A. fumigatus conidia = assay: Confrontation assay: killing of A. fumigatus conidia by monocytes pre-incubated with T cell supernatant; type: cell-based, Aspergillus fumigatus; conditions: monocytes pre-incubated with supernatant of T cell clones activated with FHT peptide-pulsed APC; 3 hours; FIG. 5
Protocol: (§5) Dendritic cells (DC) were generated from monocytes by addition of 500 U/ml GM-CSF (PromoCell, Heidelberg, Germany) and 700 U/ml IL-4 (R&D systems, Wiesbaden-Nordenstadt, Germany) to the culture medium. Immature dendritic cells were incubated for 24 hours with either live A. fumigatus or C. albicans conidia or fungus killed by treatment with ethanol 0, 4, 8 or 12 hours after germination and subsequently co-incubated, with Aspergillus peptide-specific T cell clones for further 24 hours. Dendritic cells used for presentation of protein or peptide antigen were induced to mature by addition of 25 ng/ml TNF-α, 5 ng/ml IL-1β, 10 ng/ml IL-6 (all R&D systems, Wiesbaden-Nordenstadt, Germany) and 1 μg/ml PGE2 (Pharmacia, Ratingen, Germany) prior to antigen-pulsing and co-incubation with antigen-specific T cells. In one experiment the antigen-presenting dendritic cells fed with live Aspergillus conidia were incubated with either 25 μg/ml control antibody or MHC class II blocking antibody (No 555556, BD Biosciences, Heidelberg, Germany) for 1 hour prior to addition of the T cells. Antibody also remained present during the 24 hours co-incubation of T cells with antigen-presenting DC. […]
Killing of A. fumigatus conidia by monocytes was quantified using confrontation assays. […] Each experimental setting was determined in quadruple. […] Colonies were quantified after incubation at 37° C. over night. […]

[2] = system: PBMC from HLA-DRB1*04-positive donors; assay: Criss-cross restimulation of T cell lines generated with FHT peptide or recombinant Asp f16 protein, IFN-γ; type: cell-based, human; conditions: lines generated for one week with peptide or protein, exposed to both for 24 hours; FIG. 2C
Protocol: as §2, §3, §4

[3] = system: FHT-specific CD4+ T cell clones; assay: Restimulation of FHT-specific CD4+ T cell clones with antigen-loaded dendritic cells, IFN-γ ELISA; type: cell-based, human
Protocol: For generation of antigen-specific T cell clones PBMC were stimulated repeatedly with 1 μg/ml FHT peptide once weekly for 4 weeks. Subsequently T cell clones were generated by limiting dilution in 96-well plates and expanded using the rapid expansion protocol as described by Beck et al^14. A CMVpp65-specific CD4^+ T cell clone used in control experiments was generated accordingly by limiting dilution of T cells stimulated with pp65 peptide antigen (kindly provided by Jan Diekmann).
as §5, with “cells.” for “cells. In one experiment the antigen-presenting dendritic cells fed with live Aspergillus conidia were incubated with either 25 μg/ml control antibody or MHC class II blocking antibody (No 555556, BD Biosciences, Heidelberg, Germany) for 1 hour prior to addition of the T cells. Antibody also remained present during the 24 hours co-incubation of T cells with antigen-presenting DC.”

HLA-DRB1*04 = assay: Binding to HLA-DRB1*04; design: species or system human
Text: Whether or not a peptide binds to HLA-DRB1*04 may be determined using any method known in the art. A suitable method is shown in Example 1, with particular reference to FIG. 2B. One method is to introduce the peptide into PBMCs taken from an HLA-DRB1*04 human and determine whether an activating or proliferative response is obtained which is indicative of binding. Binding to HLA-DRB1*04 may also be assessed using the methods described in FIGS. 7 and 8.
as §1

phoenix GALV = type: cell-based, human; conditions: point mutation His136Leu versus Asp f1
Text: The gene encoding the A. fumigatus Asp f16 protein (NCBI accession number AY169706) was cloned into the eukaryotic expression vector pcDNA3.1-TOPO (Invitrogen, Karlsruhe, Germany) with N- and C-terminal FLAG®-Tag (Sigma-Aldrich, Muenchen, Germany). The gene was amplified from cDNA kindly provided by Utz Reichard (University of Goettingen, Germany). The gene encoding Asp f1 protein (NCBI accession number M83781) was cloned accordingly, omitting the leader sequence (cDNA kindly provided by Prof. Dr. Stefan Stevanović, University of Tuebingen, Germany).
pcDNA3.1-aspf16-FLAG and pcDNA3.1-aspf1-H136L-FLAG expression vector was introduced into the transgenic human cell line phoenix GALV^20 via calcium phosphate transfection. Parental as well as transfected producer cells were cultivated in DMEM medium (Invitrogen, Karlsruhe, Germany) supplemented with 10% heat-inactivated fetal calf serum (FCS, Biochrom, Berlin, Germany) and 100 U/ml Penicillin-Streptomycin (Invitrogen, Karlsruhe, Germany). 24 hours after transfection transgene expression from the CMV promoter of the expression vector was enhanced by addition of 1 mM sodium butyrate (Sigma-Aldrich, Muenchen, Germany) to the culture medium^21.
Recombinant Asp f1 and Asp f16 proteins were produced in a eukaryotic expression system and purified by standard methods via introduced FLAG-Tags. […]

PBMC from healthy donors = assay: Restimulation of T cell lines generated with recombinant protein, IFN-γ ELISA; type: cell-based, human; conditions: PBMC of 4 healthy donors; significant = at least 50 pg/ml and/or more than 5-fold increase over unstimulated; FIG. 1A/1B
Protocol: Blood was obtained from HLA-DRB1*-typed healthy donors after informed consent. Peripheral blood mononuclear cells (PBMC) were isolated via centrifugation in Biocoll Separating Solution (Biochrom, Berlin, Germany) and either used directly after preparation or cryopreserved for later use. Cells were cultured in RPMI 1640 with L-Glutamine (Invitrogen, Karlsruhe, Germany), supplemented with 10% heat-inactivated, pooled human serum and 100 U/ml Penicillin-Streptomycin (Invitrogen, Karlsruhe, Germany).
as §2
Autologous monocytes were isolated from whole PBMC by allowing cells to adhere to tissue culture dishes for 2 hours and subsequent extensive washing to remove non-adherent cells. […]
PBMC from 4 different healthy donors, were stimulated for 7 days with purified recombinant Asp f1-H136L or Asp f16 protein. The generated T cell lines were then re-exposed for 24 hours to both proteins and the amount of secreted IFN-γ quantified in the supernatant by IFN-γ ELISA. […]

| Molecule | IFNg production with FHT loaded HLA restricted LCL compared to peptide alone (T cell clones) | detection of FHT specific T cells by multimer staining (T cells specific for FHT) | IFN-γ production in response to peptide [1] | fungal survival after phagocytosis by monocytes (A. fumigatus conidia) | specific cytokine (IFN-γ) production after restimulation with peptide and recombinant protein [2] | IFN-γ production of FHT-specific CD4+ T cell clones in response to DC ([3]; autologous DC pulsed with synthetic peptide, 24 h, FIG. 3A) | binding to HLA-DRB1*04 (HLA-DRB1*04) | binding to HLA-DRB1*04 (HLA-DRB1*04; listed as FHT) | cross-reactivity of Asp f16-specific CD4+ TH1 T cell clones to pulsed APC ([3]; APC pulsed with purified protein) | cytotoxicity in the producing cell line (phoenix GALV) | IFN-γ after one week of stimulation and 24 h re-exposure to recombinant protein (PBMC from healthy donors) |
| --- | --- | --- | --- | --- | --- | --- | --- | --- | --- | --- | --- |
| FHTYTIDWTKDAVTW [FHT peptide] | greatly increased specific cytokine production | can be detected by DRB1*0401/FHT multimer staining | abundant production of IFN-γ | significantly reduce fungal survival | specific cytokine production could be detected | high amounts of IFN-γ | has been shown to bind to HLA-DRB1*04 | specifically binds HLADRB1*04 |  |  |  |
| recombinant Asp f1-H136L protein: FLAG-tagged recombinant A. fumigatus Asp f1 ribotoxin with point mutation His136Leu, without leader sequence (protein, UniProt P67875 28-176, looked up, variant H136L, FLAG tag) Ribonuclease mitogillin: ATWTCINQQLNPKTNKWEDKRLLYSQAKAESNSHHAPLSDGKTGSSYPHWFTNGYDGNGKLIKGRTPIKFGKADCDRPPKHSQNGMGKDDHYLLEFPTFPDGHDYKFDSKKPKEDPGPARVIYTYPNKVFCGIVALQRGNQGDLRLCSH |  |  |  |  |  |  |  |  | not cross-reactive | nearly abolished cytotoxicity | only one of 4 donors responded robustly |
